From US9610236B2, “Cosmetic use of Queuine” (AMABIOTICS, priority 2013, dated 2017)
“Also recorded” adds a separate entry of the source.

What was measured:
Type in all cases: cell-based
[1] = test system: HDFa, adult human dermal fibroblasts; assay: Cell migration into calibrated acellular gap (culture inserts, image comparison); details: 24 h
Description: The dilution range prepared for evaluating migration was identical to the range for evaluating kinetics with the exclusion of the 0.3 μg/ml concentration. The adult HDFs used were seeded in the presence of previously sterilised culture inserts which allowed the creation of calibrated acellular regions. 100,000 HDFa in 600 μl and 30,000 cells in 150 μl were respectively added outside and inside the inserts, in DMEM+2.5% FCS. After an incubation time of 5 h at 37° C., the inserts were removed and the wells washed twice with PBS 1× to eliminate every cell which had not adhered. The queuine molecule was then added at 30, 10, 3 or 1 μg/ml in DMEM 2.5% FCS, and an equivalent range of methanol was also carried out, two wells per condition. The wells were photographed at t=0 h and the plates then incubated for 24 h. The cells were fixed with paraformaldehyde before taking photos at 24 h. The images were analysed using ImageJ software, to improve the contrast thereof. All fields were examined and the two most representative of each condition were chosen for each time indication. Analysis was performed by comparison with the control. The adult HDFs were seeded in the presence of previously sterilised culture inserts, to create calibrated acellular regions in a confluent cell mat. The cells tend to fill the gap created by migrating from the edges to close the gap. After 5 h incubation at 37° C., the inserts were removed and the wells washed twice in PBS 1× to eliminate every non-adhering cell. Queuine was then added at 30, 10, 3 or 1 μg/ml in DMEM 2.5% FCS and an equivalent range of methanol was also prepared, two wells per condition. Photos of the wells were taken at t=0 h. The cells were cultured 24 h at 37° C., before being fixed in paraformaldehyde. Photos were taken at t=24 h. The photos were compared with each other to assess the difference in cell migration into the gap between the different assayed conditions.

[2] = test system: HDFa, adult human dermal fibroblasts; assay: Cell proliferation, BrdU assay; details: for Mean ODs (BrdU cell proliferation): OD 450 nm
Description: (§1) The stock solution of queuine was prepared with 15 mg/ml methanol and the dilutions were obtained in DMEM (Dulbecco's Modified […]) in the presence of variable concentrations of foetal calf serum (FCS) (DMEM+2.5% FCS+antibiotics (penicillin/streptomycin)+glutamine): depleted medium with 2.5% FCS for the viability, proliferation and cell migration experiments.
This first assay allowed fine-tuning of the applied concentration range. The dilution range for the assay of cell proliferation kinetics was as follows:
(§2) Cell type: HDFa, adult human dermal fibroblasts, person, used between passage 4 and passage 6.
(§3) The adult HDFs used were seeded to a proportion of 5×10^3 cells/well in 96-well plates (passage 4) in 200 μl culture medium without FCS (supplemented DMEM+0% FCS). 24 h after seeding, the culture medium was changed and the different dilutions of the product or its carrier (methanol) were added at 200 μl per well, with 3 wells per culture condition.
Cell proliferation was evaluated using an assay of ELISA type (BrdU assay, Bromodeoxyuridine) after 1, 2 and 3 days of culture.
BrdU is a synthetic nucleoside and an analogue of thymidine, which can be recognised by an anti-BrdU antibody. It is incorporated during DNA replication of the proliferating cells. The anti-BrdU antibody is coupled to an enzyme which, in the presence of its substrate, will degrade the latter. Detection of BrdU is therefore carried out by colorimetric enzymatic assay.
Degradation of the enzyme substrate will stain the supernatant proportional to the amount of incorporated BrdU. Measurement is then performed by read-out of optical density (OD) using a spectrophotometer at a wavelength of 450 nm. The assay was conducted at D1, D2 and D3 (D0 corresponding to the time of addition of the solutions to be assayed).

[3] = test system: HDFa, adult human dermal fibroblasts; assay: Cytotoxicity / cell viability, MTT assay; details: for Mean - blank (cell viability OD) / OD mean values (cell viability) / Mean OD values (cell viability): MTT; for OD mean values (cell viability) / Mean OD values (cell viability): OD 570 nm; for OD mean values (cell viability): DMEM 2.5% FCS
Description: as §1
The dilution range prepared for the toxicity/viability assay was the following:
as §2, §3
Cell proliferation was evaluated using a colorimetric assay (MTT assay) after culture times of 1, 2 and 3 days. This assay is based on reduction of the yellow tetrazolium salt (MTT) [3-(4,5-dimethylthiazol bromide] to a blue-purple formazan product by the mitochondrial NADPH reductases of the cells, provided they are living. The crystals were then dissolved in 100% ethanol—DMSO mixture (v/v). Colouring of the supernatant, proportional to the number of living cells, was measured by optical density (OD) read-out on a spectrophotometer at a wavelength of 570 nm. The assay was conducted at D1, D2 and D3 (D0 corresponding to the time of addition of the solutions to be assayed).
The mean OD values of the triplicates are given on a graph for each kinetic time. Standard deviations are indicated.

Nc1nc2[nH]cc(CN[C@H]3C=C[C@H](O)[C@@H]3O)c2c(=O)[nH]1 [Queuine, 2-amino-5-((((1s,4s,5r)-4,5-dihydroxy-2-cyclopenten-1-yl)amino)methyl)-1,7-dihydro-4h-pyrrolo(2,3-d)pyrimidin-4-one]
migration compared with 2.5% FCS control ([1]; 10 μg/ml and 30 μg/ml in 2.5% FCS): better migration than in 2.5% FCS
effect on migration of the fibroblasts ([1]; 10 μg/ml): has an effect on migration of the fibroblasts; also recorded: has an effect on the migration of adult HDFs
gap closure (observation of photos) ([1]; 30 μg/ml in 2.5% FCS): the cells of the two edges meet in the centre of the gap
effect on migration of the fibroblasts ([1]; 30 μg/ml): confirmed
migration compared with positive 10% FCS control ([1]; 10 and 30 μg/ml): equivalent to that obtained with the positive 10% FCS control
Mean - blank (BrdU OD) ([2]; 0.3 μg/ml, 24 h contact time): 1.181
Mean ODs (BrdU cell proliferation) ([2]; 0.3 μg/ml, 24 h contact time, DMEM 2.5% FCS): 1.312
Mean - blank (BrdU OD) ([2]; 0.3 μg/ml, 48 h contact time): 0.677
Mean ODs (BrdU cell proliferation) ([2]; 0.3 μg/ml, 48 h contact time, shortened substrate incubation): 0.800
Mean - blank (BrdU OD) ([2]; 0.3 μg/ml, 72 h contact time): 0.416
Mean ODs (BrdU cell proliferation) ([2]; 0.3 μg/ml, 72 h contact time, shortened substrate incubation): 0.586
Mean - blank (BrdU OD) ([2]; 1 μg/ml, 24 h contact time): 1.197
Mean ODs (BrdU cell proliferation) ([2]; 1 μg/ml, 24 h contact time, DMEM 2.5% FCS): 1.328
Mean - blank (BrdU OD) ([2]; 1 μg/ml, 48 h contact time): 0.803
Mean ODs (BrdU cell proliferation) ([2]; 1 μg/ml, 48 h contact time, shortened substrate incubation): 0.926
Mean - blank (BrdU OD) ([2]; 1 μg/ml, 72 h contact time): 0.378
Mean ODs (BrdU cell proliferation) ([2]; 1 μg/ml, 72 h contact time, shortened substrate incubation): 0.548
Mean - blank (BrdU OD) ([2]; 3 μg/ml, 24 h contact time): .391
Mean ODs (BrdU cell proliferation) ([2]; 3 μg/ml, 24 h contact time, DMEM 2.5% FCS): 1.522
Mean - blank (BrdU OD) ([2]; 3 μg/ml, 48 h contact time): 0.793
Mean ODs (BrdU cell proliferation) ([2]; 3 μg/ml, 48 h contact time, shortened substrate incubation): 0.915
Mean - blank (BrdU OD) ([2]; 3 μg/ml, 72 h contact time): 0.511
Mean ODs (BrdU cell proliferation) ([2]; 3 μg/ml, 72 h contact time, shortened substrate incubation): 0.681
Mean - blank (BrdU OD) ([2]; 10 μg/ml, 24 h contact time): 1.494
Mean ODs (BrdU cell proliferation) ([2]; 10 μg/ml, 24 h contact time, DMEM 2.5% FCS): 1.625
Mean - blank (BrdU OD) ([2]; 10 μg/ml, 48 h contact time): 0.943
Mean ODs (BrdU cell proliferation) ([2]; 10 μg/ml, 48 h contact time, shortened substrate incubation): 1.066
Mean - blank (BrdU OD) ([2]; 10 μg/ml, 72 h contact time): 0.538
Mean ODs (BrdU cell proliferation) ([2]; 10 μg/ml, 72 h contact time, shortened substrate incubation): 0.708
Mean - blank (BrdU OD) ([2]; 30 μg/ml, 24 h contact time): 1.502
Mean ODs (BrdU cell proliferation) ([2]; 30 μg/ml, 24 h contact time, DMEM 2.5% FCS): 1.634
Mean - blank (BrdU OD) ([2]; 30 μg/ml, 48 h contact time): 1.026
Mean ODs (BrdU cell proliferation) ([2]; 30 μg/ml, 48 h contact time, shortened substrate incubation): 1.149
Mean - blank (BrdU OD) ([2]; 30 μg/ml, 72 h contact time): 0.787
Mean ODs (BrdU cell proliferation) ([2]; 30 μg/ml, 72 h contact time, shortened substrate incubation): 0.958
proliferative effect ([2]; 3, 10 and 30 μg/ml after 72 hours' incubation): a proliferative effect is evidenced
proliferative effect ([2]; 72 hours, 30 μg/ml): particularly pronounced; also recorded: major proliferative effect
proliferative effect ([2]; 72 hours, 3 and 10 μg/ml): clear proliferative effect
proliferative effect compared with the carrier ([2]; short times (24 and 48 hours)): no significant effect
Mean - blank (cell viability OD) ([3]; 0.1 μg/ml, 24 h contact time): 0.133
OD mean values (cell viability) ([3]; 0.1 μg/ml, 24 h contact time): 0.228
Mean - blank (cell viability OD) ([3]; 0.1 μg/ml, 48 h contact time): 0.219
Mean OD values (cell viability) ([3]; 0.1 μg/ml, 48 h contact time): 0.304
Mean - blank (cell viability OD) ([3]; 0.1 μg/ml, 72 h contact time): 0.223
Mean OD values (cell viability) ([3]; 0.1 μg/ml, 72 h contact time): 0.341
Mean - blank (cell viability OD) ([3]; 1 μg/ml, 24 h contact time): 0.155
OD mean values (cell viability) ([3]; 1 μg/ml, 24 h contact time): 0.250
Mean - blank (cell viability OD) ([3]; 1 μg/ml, 48 h contact time): 0.246
Mean OD values (cell viability) ([3]; 1 μg/ml, 48 h contact time): 0.331
Mean - blank (cell viability OD) ([3]; 1 μg/ml, 72 h contact time): 0.244
Mean OD values (cell viability) ([3]; 1 μg/ml, 72 h contact time): 0.362
Mean - blank (cell viability OD) ([3]; 10 μg/ml, 24 h contact time): 0.151
OD mean values (cell viability) ([3]; 10 μg/ml, 24 h contact time): 0.246
Mean - blank (cell viability OD) ([3]; 10 μg/ml, 48 h contact time): 0.243
Mean OD values (cell viability) ([3]; 10 μg/ml, 48 h contact time): 0.328
Mean - blank (cell viability OD) ([3]; 10 μg/ml, 72 h contact time): 0.277
Mean OD values (cell viability) ([3]; 10 μg/ml, 72 h contact time): 0.395
Mean - blank (cell viability OD) ([3]; 100 μg/ml, 24 h contact time): 0.138
OD mean values (cell viability) ([3]; 100 μg/ml, 24 h contact time): 0.233
Mean - blank (cell viability OD) ([3]; 100 μg/ml, 48 h contact time): 0.188
Mean OD values (cell viability) ([3]; 100 μg/ml, 48 h contact time): 0.273
Mean - blank (cell viability OD) ([3]; 100 μg/ml, 72 h contact time): 0.154
Mean OD values (cell viability) ([3]; 100 μg/ml, 72 h contact time): 0.272
cytotoxic effect ([3]; 100 μg/ml, at 48 h): exhibited a cytotoxic effect
cytotoxic effect ([3]; concentrations below 100 μg/ml): do not exhibit any cytotoxic effect; also recorded: did not display any cytotoxic effect
